pIC50: −log10 of the molar value.

For the first assay, the target named is T1, human HPK1 protein (Homo sapiens, UniProt Q92918).
T1 construct: recombinant human HPK1 protein (a.a. 1-346) was expressed in Sf9 insect cells; GST (N); purchased Signalchem M23-11G; host or cells: Sf9 insect cells (baculovirus)
T1 sequence (Q92918 1-346): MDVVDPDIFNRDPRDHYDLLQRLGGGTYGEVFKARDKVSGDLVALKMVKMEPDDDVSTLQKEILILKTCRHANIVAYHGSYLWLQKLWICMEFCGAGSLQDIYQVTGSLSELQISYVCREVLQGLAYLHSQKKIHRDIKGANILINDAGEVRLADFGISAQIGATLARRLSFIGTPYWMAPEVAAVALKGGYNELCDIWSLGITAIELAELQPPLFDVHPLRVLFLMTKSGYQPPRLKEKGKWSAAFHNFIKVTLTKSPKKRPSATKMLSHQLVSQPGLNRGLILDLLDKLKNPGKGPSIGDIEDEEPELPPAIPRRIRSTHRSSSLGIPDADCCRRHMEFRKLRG
Briefly: Human HPK1 protein TR-FRET assay. Type of assay: biochemical. Conditions: 1 mM ATP, Table 19. Put shortly:
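Read-out was TR-FRET using Eu-labeled anti-phospho-CREB (Ser133) antibody, with the 665/615 nm signal ratio normalised to DMSO-only wells and fitted by a 4-parameter logistic model for IC50. Reactions held 10 nM Sf9-expressed GST-HPK1 (a.a. 1-346), 100 nM CREBtide and 1 mM ATP, run 60 minutes at room temperature, pH 7.5.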
`CCC1CN(C(=O)Nc2ccc(CN3CCN(CC)CC3)c(C(F)(F)F)c2)Cc2cc(Oc3ccnc4[nH]ccc34)ccc21` (stereo not drawn) [IV-21]: the pIC50 (usually the IC50 on a negative log10 scale, so that one unit is a factor of ten) is over 6.30.
Still for that read-out and setting: the result for `CCN1CCN(Cc2ccc(NC(=O)N3CCc4ccc(Oc5ncnc6[nH]cnc56)cc4C3)cc2C(F)(F)F)CC1` [II-6] reads over 6.30.
`C[C@H]1c2cc(Oc3ccnc4[nH]ccc34)ccc2CCN1C(=O)Nc1ccc(CN2CCN(CCO)CC2)c(C(F)(F)F)c1` [V-19] gave a negative logarithm of the IC50 (pIC50) of over 6.30.
The same measure, in the same setting: the result for `CCN1CCN(Cc2ccc(NC(=O)N3CCc4ccc(Oc5ccnc6[nH]ccc56)cc4[C@@H]3C)cc2C(F)F)CC1` [V-4] reads over 6.30; that for `CCN1CCN(Cc2ccc(NC(=O)N3CCc4ccc(Oc5ccnc(NC)c5)cc4C3)cc2C(F)(F)F)CC1` [II-13], over 6.30; that for `Cc1cc2c(Oc3ccc4c(c3)[C@H](C)N(C(=O)Nc3cnc(OC5CCCN(C)CC5)c(C(F)(F)F)c3)CC4)ccnc2[nH]1` (mixture of isomers) [VI-13], 5.30 to 6.30.
The compound `CN1CCC(Oc2ccc(NC(=O)N3CCc4ccc(Oc5ccnc6[nH]ccc56)cc4C3)cc2C(F)(F)F)CC1` [III-11] showed a pIC50 of over 6.30.

Staying with this assay, now noted: 1 mM ATP, Table 20.
Compound `C[C@H]1c2cc(Oc3ccnc4[nH]c(C5(O)COC5)cc34)ccc2CCN1C(=O)Nc1ccc(CN2CCNCC2)c(C(F)(F)F)c1` [XIII-7] gave a negative logarithm of the IC50 (pIC50) of over 6.30.
As for `CCN1CCN(Cc2ccc(NC(=O)N3CCc4ccc(Oc5c(F)cnc6[nH]c(-c7cnn(C)c7)cc56)cc4C3)cc2C(F)(F)F)CC1` [XII-15], the pIC50 is over 6.30.
Same read-out and setting: the result for `CC[C@@H]1CN(C(=O)Nc2ccc(CN3CCN(C)CC3)c(C(F)(F)F)c2)Cc2cc(Oc3ccnc4[nH]c(CO)cc34)cnc21` [XIV-56] reads over 6.30.
Same read-out and setting: the result for `C[C@H]1CN(C(=O)Nc2ccc(CN3CCN(C)CC3)c(C(F)(F)F)c2)Cc2cc(Oc3ccnc4[nH]c(C5(O)COC5)cc34)ccc21` [XV-32] reads over 6.30.
The same measure, in the same setting: the result for `CC[C@H]1CN(C(=O)Nc2ccc(CN3CCN(C)CC3)c(C(F)(F)F)c2)Cc2cc(Oc3ccnc4[nH]c(C(=O)N(C)CCCO)cc34)cnc21` [XIV-111] reads over 6.30; that for `CC[C@H]1CN(C(=O)Nc2ccc(CN3CCNCC3)c(C(F)(F)F)c2)Cc2cc(Oc3ncnc4[nH]c(C(=O)N(C)C)cc34)cnc21` [XIV-126], over 6.30.
In the case of `CCN1CCN(Cc2ccc(NC(=O)N3Cc4cc(Oc5ccnc6[nH]nnc56)cnc4C(C)C3)cc2C(F)(F)F)CC1` (single isomer, unassigned) [XIV-17], the pIC50 is under 5.00.
On the same count and under the same terms, the result for `CC[C@H]1CN(C(=O)Nc2ccc(CN3CCN(C)CC3)c(C(F)(F)F)c2)Cc2cc(Oc3ncnn4cc(C(=O)N(C)C)cc34)cnc21` [XIV-144] reads over 6.30; that for `CCN1CCN(Cc2ccc(NC(=O)C3CCc4ncc(Oc5ccnc6[nH]ccc56)cc4C3)cc2C(F)(F)F)CC1` (stereo not drawn) [compound 24, 3-((1H-Pyrrolo[2,3-b]pyridin-4-yl)oxy)-N-(4-((4-ethylpiperazin-1-yl)methyl)-3-(trifluoromethyl)phenyl)-5,6,7,8-tetrahydroquinoline-6-carboxamide], over 6.30; that for `CC[C@H]1CN(C(=O)Nc2ccc(CN3CCN(C)CC3)c(C(F)F)c2)Cc2cc(Oc3ccnc4[nH]c(CO)cc34)cnc21` [XIV-47], over 6.30.
On the same count and under the same terms, the result for `CC[C@@H]1CN(C(=O)Nc2ccc(CN3CCN(CC)CC3)c(C(F)(F)F)c2)Cc2cc(Oc3ccnc4[nH]c(C5CC5)cc34)cnc21` [XIV-23] reads over 6.30; that for `CCN1CCN(Cc2ccc(NC(=O)N3Cc4cc(Oc5ccnc6[nH]ccc56)ccc4C(C(F)(F)F)C3)cc2C(F)(F)F)CC1` (stereo not drawn) [XVIII-15], over 6.30.
On the same count and under the same terms, the result for `CCC1CN(C(=O)Nc2ccc(CN3CCN(CC)CC3)c(C(F)(F)F)c2)Cc2cc(Oc3ccnc4[nH]c(C5CCN(C(=O)C6CC6)CC5)cc34)ccc21` (stereo not drawn) [XV-40] reads over 6.30; that for `CCN1CCN(Cc2ccc(NC(=O)N3Cc4cc(Oc5ccnc6ncc(=O)[nH]c56)cnc4C(C)C3)cc2C(F)(F)F)CC1` (single isomer, unassigned) [XIV-8], 5.30 to 6.30.

For the origin of these results see patent US20210139484A1, “DIHYDROISOQUINOLINE-2(1H)-CARBOXAMIDE AND RELATED COMPOUNDS AND THEIR USE IN TREATING MEDICAL CONDITIONS” (GOSSAMER BIO SERVICES, INC., priority 2018, published 2021).
